Measured values as given in paper PMC10605077, “In Vitro and In Silico Antiviral Activity of Di-Halogenated Compounds Derived from L-Tyrosine against Human Immunodeficiency Virus 1 (HIV-1)” (Current Issues in Molecular Biology, 2023).

Assays:
MTT cytotoxicity assay = type: cell-based; details: human; TZM-bl cells, MTT, 48 h
Description: The in vitro cytotoxic effect of the di-halogenated compounds on TZM-bl cells was determined with the MTT (3-(4,5-Dimethylthiazol-2-yl)-2,5-diphenyltetrazolium bromide) assay (Sigma-Aldrich, St. Louis, MO, USA). For this purpose, 1.2 × 10^5 cells/well were seeded in 96-well plates, which were incubated at 37 °C and 5% CO2 for 24 h. DMEM was used as a negative control and serial two-fold dilutions of the compounds were performed at 9.37 to 300 μM in DMEM supplemented with 5% FBS. A total of 100 μL/well of each dilution was added and incubated for 48 h. Subsequently, the cells were washed 2 times with 1X PBS, and 30 μL of MTT solution (2 mg/mL) was added and incubated for 2 h at 37 °C, in a light-protected culture. Then, 100 µL of DMSO was added to dissolve the formazan crystals, placed in shaking for 15 min, and absorbance reading was performed at 570 nm, using the Microplate Spectrophotometer (Thermo Scientific™ Multiskan™ GO, Waltham, MA, USA). Two independent experiments evaluated each experimental condition in quadruplicate (n = 8). The percentage of viability was calculated concerning the absorbance of the controls without a compound (100% viability). The 50% cytotoxic concentration was defined as the concentration of each compound that can reduce cell viability to 50% of the untreated cell control. CC50 was calculated and analyzed with GraphPad Prism version 8.0.1 (GraphPad Software, Inc., San Diego, CA, USA).

[1] = Viability assay of PBMC, flow cytometry with viability dye; type: cell-based, Human; details: human, PBMC stimulated with PHA and IL-2; all concentrations tested (18.75 μM up to 150 μM), 7 days; read-out: viability level on PBMCs
Description: PBMCs were thawed and let in the culture in RPMI with 10% fetal bovine serum (FBS) (Gibco, Grand Island, NY, USA) for 24 h before each experiment. Cells were stimulated for 48 h with 8 μg/mL of Phytohemagglutinin-PHA (Sigma-Aldrich, St. Louis, MO, USA) and 50 UI/mL of IL-2 (Peprotech, Rocky Hill, CT, USA). In the presence of various concentrations of di-halogenated compounds derived from L-Tyrosine, 2 × 10^5 cells per well were treated and resuspended in 200 µL of fresh medium with 20 UI/mL of IL-2 and incubated in 96-well culture plates for 7 days. After 7 days post-treatment, cell viability was determined using flow cytometry. Briefly, cells were stained with fixable viability dye eFluor 506 (eBioscience, Leicestershire, UK) as detailed in the manufacturer’s protocol for 30 min in the dark. Later, cells were washed and resuspended in PBS, and the percentage of viable cells was measured instead in the LS Fortessa cytometer (BD Biosciences, Franklin Lakes, NJ, USA). Data were analyzed using FlowJo version 10.5.3 (FlowJo, LLC, Ashland, OR, USA).

HIV-1IIIB (X4) = test: Anti-HIV activity in infected TZM-bl cells (luciferase), pre- and post-infection treatment; type: cell-based, Human Immunodeficiency Virus Type 1 (HIV-1); details: TZM-bl cells
Description: TZM-bl cells were plated in a flat-bottom 96-well plate (Corning Inc., Corning, New York, NY, USA) at the concentration of 1.2 × 10^5 cells/well and incubated for 24 h at 37 °C before the addition or not of each compound at non-cytotoxic concentrations (pre-infection treatment). Then, 1 h later the treatment was removed, and the infection was performed by adding 10 ng/mL of HIV-1IIIB p24 (X4) or 2 ng/mL of HIV-1 BaL (R5). After 3 h, the virus was removed and washed, and the compound dilutions were added again (post-infection treatment). Additionally, three wells were left for the negative control (cells without treatment or infection), the positive control of infection (cells infected with the virus without treatment), and the positive control of inhibition (AZT). Antiviral activity was quantified 48 h after treatment by measuring luciferase activity, which is directly proportional to the number of infectious virus particles in the sample [23]. The luciferase activity was quantified via luminescence emitted by the cells using Bright-GloTM Luciferase Assay System (Promega Corp., Madison, WI, USA), following the manufacturer’s instructions. Briefly, 100 μL of the reagent was added to 100 μL of TZM-bl cells and incubated for at least 2 min, protected from light. Relative light units (RLUs) were measured using the multi-mode plate reader (Thermo ScientificTM VarioskanTM LUX). Each experimental condition was performed in triplicate in two independent experiments (n = 6). The percentage inhibition was calculated as follows: 100 − (RLU of treated cells − RLU of uninfected cells/RLU of infection control − RLU of uninfected cells) × 100.

[2] = test system: HIV-GFP-VSV-G reporter virus; test: microbe, parasite or virus in culture; type: cell-based, HIV-1; details: Human immunodeficiency virus 1, TZM-bl, read-out: percentage inhibition of HIV-GFP-VSV-G replication
HIV-1 BaL [3] = test: Anti-HIV activity in PBMC, intracellular p24 by flow cytometry; type: cell-based; details: 7 days
Description: In the presence of various concentrations of the most bioactive compounds, 1×10^6 PBMCs previously stimulated with 8 μg/mL of PHA and 50UI/mL of IL-2 were treated for 1 h. […] After spinoculation, cells were washed twice with PBS 1x to remove free virions, and then, fresh medium supplemented with 20 UI/mL of IL-2, with or without the di-halogenated compounds derived from L-Tyrosine dilutions, was added. Cells were plated in 96-well culture plates and incubated for 7 days. […] In addition, antiviral activity was also assessed by measuring intracellular p24 in harvested cells. Briefly, cells were stained with fixable viability dye eFluor 506 (eBioscience, Leicestershire, UK), CD3 (UCHT1; Thermo Scientific, Wilmington, DE, USA), CD4 (RPA-T4; BD Biosciences, San Jose, CA, USA), and p24 PE (KC57; Beckman Coulter, Pasadena, CA, USA), as detailed in the manufacturer’s protocol. Later, cells were washed and resuspended in PBS, and the lecture was measured instead in the LS Fortessa cytometer (BD Biosciences, Franklin Lakes, NJ, USA). Data were analyzed using FlowJo version 10.5.3 (FlowJo, LLC, Ashland, OR, USA).

HIV-1 BaL [4] = test: Anti-HIV activity in PBMC, p24 ELISA of supernatant; type: cell-based; details: 150 μM, supernatant, 7 days

In the case of `COc1c(Cl)cc(C[C@@H](C(=O)O)N(C)C)cc1Cl` [TODC-2M], the CC50 at 48 h (MTT cytotoxicity assay) is reported as greater than 300 µM, the viability at 7 days [1] is reported as greater than 90% and the inhibition at 18 µM (HIV-1IIIB (X4); Human immunodeficiency virus 1, TZM-bl, 18 µM, read-out: Percentage inhibition of HIV-1IIIB (X4 strain) replication) is reported as -18.5%. For the same compound, the inhibition at 37 µM (HIV-1IIIB (X4); Human immunodeficiency virus 1, TZM-bl, 37 µM, read-out: Percentage inhibition of HIV-1IIIB (X4 strain) replication) was 40.6%, the inhibition at 75 µM (HIV-1IIIB (X4); Human immunodeficiency virus 1, TZM-bl, 75 µM, read-out: Percentage inhibition of HIV-1IIIB (X4 strain) replication) was 62.8% and the inhibition at 150 µM (HIV-1IIIB (X4); Human immunodeficiency virus 1, TZM-bl, 150 µM, read-out: Percentage inhibition of HIV-1IIIB (X4 strain) replication) was 99.6%. For the same compound, the IC50 (HIV-1IIIB (X4); Human immunodeficiency virus 1, HIV-1IIIB (X4), luciferase, 48 h) was roughly 39.1 µM, the inhibition at 150 µM [2] was 29% and the inhibition at 18.75 µM (HIV-1 BaL [3]; Human immunodeficiency virus 1, BAL, PBMC, 168 h, 18.75 μM, read-out: inhibition of HIV-1 BaL replication in PBMC, flow cytometry (intracellular p24)) was 50.6%. The inhibition at 75 µM (HIV-1 BaL [3]; Human immunodeficiency virus 1, BAL, PBMC, 168 h, 75 μM, read-out: inhibition of HIV-1 BaL replication in PBMC, flow cytometry (intracellular p24)) was 69.6%, the inhibition at 150 µM (HIV-1 BaL [3]; Human immunodeficiency virus 1, BAL, PBMC, 168 h, 150 µM, read-out: inhibition of HIV-1 BaL replication in PBMC, flow cytometry (intracellular p24)) was greater than 60% and the “inhibition of HIV-1 BaL replication in PBMC, flow cytometry (intracellular p24)” value (HIV-1 BaL [3]; all concentrations) was “over 50%”. The “inhibition of HIV-1 BaL in PBMC, extracellular p24 ELISA” value (HIV-1 BaL [4]) was 21.6% and the inhibition at 150 µM (HIV-1 BaL [4]; Human immunodeficiency virus 1, BAL, PBMC, 168 h, read-out: inhibition of HIV-1 BaL in PBMC, extracellular p24 ELISA) was greater than 20%.
